The target in series [1] is T1, Amine oxidase [flavin-containing] B (Homo sapiens, UniProt P27338).
T1 sequence (P27338 whole entry): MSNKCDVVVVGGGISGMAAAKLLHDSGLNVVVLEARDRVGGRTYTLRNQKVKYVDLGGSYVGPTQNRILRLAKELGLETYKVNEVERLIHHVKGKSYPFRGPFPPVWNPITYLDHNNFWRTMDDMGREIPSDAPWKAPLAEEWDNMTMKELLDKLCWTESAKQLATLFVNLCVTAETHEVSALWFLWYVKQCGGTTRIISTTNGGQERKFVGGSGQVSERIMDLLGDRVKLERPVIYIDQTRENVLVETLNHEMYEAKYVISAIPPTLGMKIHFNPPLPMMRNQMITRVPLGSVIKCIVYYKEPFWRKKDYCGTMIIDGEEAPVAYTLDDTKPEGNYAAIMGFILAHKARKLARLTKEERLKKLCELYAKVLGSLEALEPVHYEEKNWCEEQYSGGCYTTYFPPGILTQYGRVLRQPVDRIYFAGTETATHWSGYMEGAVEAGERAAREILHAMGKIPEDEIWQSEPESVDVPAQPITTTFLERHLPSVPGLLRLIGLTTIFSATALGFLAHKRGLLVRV
Kind of series: Inhibition of human recombinant MAO-B assessed as oxidation of kynuramine to 4-hydroxyquinoline after 20 mins.

Series [2] concerns the target T2, Amine oxidase [flavin-containing] A (Homo sapiens, UniProt P21397).
T2 sequence (P21397 whole entry): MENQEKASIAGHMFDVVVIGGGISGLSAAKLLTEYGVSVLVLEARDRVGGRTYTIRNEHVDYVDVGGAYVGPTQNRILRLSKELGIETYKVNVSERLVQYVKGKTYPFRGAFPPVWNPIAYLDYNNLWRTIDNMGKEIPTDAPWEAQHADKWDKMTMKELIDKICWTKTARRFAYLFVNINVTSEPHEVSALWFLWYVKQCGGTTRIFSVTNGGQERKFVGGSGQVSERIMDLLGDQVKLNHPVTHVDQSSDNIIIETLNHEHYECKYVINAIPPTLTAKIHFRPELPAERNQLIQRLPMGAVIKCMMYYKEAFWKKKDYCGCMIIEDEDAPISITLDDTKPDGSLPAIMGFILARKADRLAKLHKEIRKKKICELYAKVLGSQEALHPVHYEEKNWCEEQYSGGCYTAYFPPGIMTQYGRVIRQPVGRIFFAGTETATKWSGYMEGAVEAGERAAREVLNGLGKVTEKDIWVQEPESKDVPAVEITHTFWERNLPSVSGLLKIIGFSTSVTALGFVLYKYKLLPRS
Kind of series: Inhibition of human recombinant MAO-A assessed as oxidation of kynuramine to 4-hydroxyquinoline after 20 mins.

Series [3] concerns the target T2, Amine oxidase [flavin-containing] A. The series can be described thus: Inhibition of human recombinant MAO-A assessed as oxidation of kynuramine to 4-hydroxyquinoline at 100 uM after 20 mins.

In the case of `O=C(/C=C/c1ccccc1)Nc1cccc(Br)c1`, the IC50 (usually the midpoint of a concentration-inhibition curve) in series [1] was 0.447 µM; in series [2], 16.7 µM.

For `O=C(/C=C/C=C/c1ccccc1)Nc1ccccc1`, the IC50 in series [1] was 5.16 µM. Also, the “inhibition (INH)” value in series [3] was “Not Active”.

For the molecule `Cc1cccc(NC(=O)/C=C/C=C/c2ccccc2)c1`, the results for the IC50 in series [1] and in series [2] were 6.65 µM and 335 µM, respectively.

For `O=C(/C=C/C=C/c1ccccc1)Nc1cccc(Cl)c1`, the IC50 in series [1] worked out at 2.2 µM; in series [2], 98.2 µM.

With `O=C(/C=C/C=C/c1ccccc1)Nc1cccc(Br)c1`, the figures for the IC50 in series [1] and in series [2] were 2.73 µM and 105 µM, respectively.

In the case of `O=C(C/C=C/c1ccccc1)Nc1ccccc1`, the IC50 in series [1] is 33.2 µM; in series [2] it was 297 µM.

For the molecule `Cc1cccc(NC(=O)C/C=C/c2ccccc2)c1`, the IC50 is 48.1 µM in series [1] and 74.8 µM in series [2].

Take `O=C(C/C=C/c1ccccc1)Nc1cccc(Cl)c1`: the IC50 was 23.5 µM in series [1] and 58.4 µM in series [2].

`O=C(C/C=C/c1ccccc1)Nc1cccc(Br)c1`: the half-maximal inhibitory concentration (IC50) in series [1] came to 30.9 µM; in series [2], 34.5 µM.

Consider `O=C(/C=C/c1cccc(O)c1)Nc1cccc(Br)c1`, for which the IC50 in series [1] came out at 1.01 µM. For the same molecule, the “inhibition (INH)” value in series [3] is “Not Active”.

For the molecule `O=C(/C=C/c1ccc(O)cc1)Nc1cccc(Br)c1`, the IC50 in series [1] worked out at 0.026 µM; in series [2] it was 35.6 µM.

Take `N#Cc1cccc(/C=C/C(=O)Nc2cccc(Cl)c2)c1`: the IC50 was found to be 0.09 µM in series [1] and 13.5 µM in series [2].

In the case of `N#Cc1cccc(/C=C/C(=O)Nc2cccc(Br)c2)c1`, the IC50 is 0.059 µM in series [1] and 27.2 µM in series [2].

Consider `N#Cc1ccc(/C=C/C(=O)Nc2cccc(Cl)c2)cc1`, for which the IC50 in series [1] was found to be 0.407 µM; in series [2], 184 µM.

As for `N#Cc1ccc(/C=C/C(=O)Nc2cccc(Br)c2)cc1`, the IC50 in series [1] is 0.289 µM; in series [2], 36.2 µM.

On to `Cc1cccc(NC(=O)/C=C/c2ccccc2)c1` [N-M-TOLYLCINNAMAMIDE], for which the IC50 stood at 4.5 µM in series [1] and 48.1 µM in series [2].

Source of the values: ChEMBL document CHEMBL1828524, “Monoamine oxidase inhibition by selected anilide derivatives” (Eur J Med Chem, 2011).
